Read-outs that look alike come from different tables or passages of the source. Blank lines part the entries; values can stand above or below the compound they belong to.
Legend:
[1] = system: thoracic aortae of wild type mice; assay: Vascular smooth muscle reactivity in isolated aorta (DMT myograph), wild type; parameters: species or system mouse; settings: for EC50: Mus musculus, phenylephrine pre-contracted, read-out: EC50 for the relaxing effect
[2] = system: thoracic aortae of TRPV2−/− mice; assay: Vascular smooth muscle reactivity in isolated aorta (DMT myograph), TRPV2 knockout; parameters: species or system mouse; developed tension: dose or concentration left out as unconfirmed; settings: for EC50: Mus musculus, phenylephrine pre-contracted, read-out: EC50 for the relaxing effect
[3] = system: WT mice; assay: Invasive cardiac hemodynamics in intact anesthetized mice (LV pressure development), wild type; assay type: in vivo, mouse
Method: (§1) All animal procedures were performed with the approval of the Institutional Animal Care and Use Committee (IACUC) of the University of Cincinnati and in accordance with the Guide for the Care and Use of Laboratory Animals (NIH, revised 1996). All wild type (WT) mice (B6129SF2/J F2 and C57BL6J, Jackson laboratories) and TRPV2^−/− mice (breeding pairs provided by Dr. M. Caterina, John's Hopkins, Baltimore, Md.) were males at 12-16 weeks of age (REF). Prior to experiments, mice were maintained on normal rodent chow and water ad libitum, and on a 14 hr/10 hr light/dark cycle (6 AM to 8 PM).
Measurements of left ventricular performance and regional blood flow were performed in separate groups of WT and TRPV2^−/− mice as previously described {Lorenz, 2008#1}. Briefly, mice were anesthetized with an intraperitoneal injection of ketamine (50 μg/gBW) and inactin (thiobutabarbital, 100 μg/gBW, Sigma, MA). A tracheotomy was performed (PE-90), and body temperature was monitored and maintained with a feedback-controlled heating table. The right femoral artery was cannulated with fluid-filled polyethylene tubing for measurement of blood pressure and connected to a low compliance pressure transducer (COBE Cardiovascular, Arvada, Colo.). The right femoral vein was cannulated for delivery of drugs. A high fidelity, 1.2F Scisense pressure catheter (Scisense, London, ON, Canada) was inserted into the right carotid artery and advanced into the left ventricle to monitor cardiac performance. ECG leads were placed on the right and left arms, and left leg and connected to a BIOAmp (ADInstruments, Colorado Springs, Colo.). For carotid blood flow measurements, the left carotid artery was isolated and fitted with a 0.5-PSB perivascular flow probe connected to a TS420 flow meter (Transonic Systems, Ithaca, N.Y.). Pressure, flow, and ECG signals were recorded and analyzed using a PowerLab system (ADInstruments). Hemodynamic measurements were taken at the basal state and after the administration of 30 and 100 μg/g doses of probenecid i.v., with 5 minutes between each dose (100 μg/μl delivered as 0.3 and 1.0 μl/gBW bolus). Measurements were taken from the final 30-40 seconds of each dosage period. Maximum dP/dt (dP/dtmax) and dP/dt at 40 mmHg of developed pressure (dP/dt40) were calculated from the first derivative of the pressure waveforms. Cerebral vascular resistance (CVR) was calculated from recorded channels of mean arterial pressure and mean cerebral blood flow (CVR=MAP/CBF).
Statistical analysis was performed by analysis of variance (ANOVA) using either a single factor within-subjects design, or a two- or three-factor mixed design with repeated measures as appropriate. Individual contrasts were used to compare group effects and interactions when needed, and the Tukey post-hoc test was used to compare individual means where appropriate (SigmaStat v3.5, Point Richmond, Calif.). Data are presented as means±S.E.M., and differences were regarded as significant at P<0.05.

[4] = system: TRPV2−/− mice; assay: Invasive cardiac hemodynamics in intact anesthetized mice (LV pressure development), TRPV2 knockout; assay type: in vivo, mouse; settings: probenecid 30 and 100 μg/g i.v. bolus
Method: as §1
Measurements of left ventricular performance and regional blood flow were performed in separate groups of WT and TRPV2^−/− mice as previously described {Lorenz, 2008#1}. […] A tracheotomy was performed (PE-90), and body temperature was monitored and maintained with a feedback-controlled heating table. […] Pressure, flow, and ECG signals were recorded and analyzed using a PowerLab system (ADInstruments). […] Maximum dP/dt (dP/dtmax) and dP/dt at 40 mmHg of developed pressure (dP/dt40) were calculated from the first derivative of the pressure waveforms. Cerebral vascular resistance (CVR) was calculated from recorded channels of mean arterial pressure and mean cerebral blood flow (CVR=MAP/CBF). […]

[5] = system: isolated aortae; assay: Vasoconstrictor effect of probenecid in isolated aortae (cumulative concentration-force relationship); parameters: species or system mouse
[6] = target: T1, TRPV2 (Homo sapiens, UniProt Q9Y5S1); settings: cited from earlier work
T1 sequence (Q9Y5S1 1-764): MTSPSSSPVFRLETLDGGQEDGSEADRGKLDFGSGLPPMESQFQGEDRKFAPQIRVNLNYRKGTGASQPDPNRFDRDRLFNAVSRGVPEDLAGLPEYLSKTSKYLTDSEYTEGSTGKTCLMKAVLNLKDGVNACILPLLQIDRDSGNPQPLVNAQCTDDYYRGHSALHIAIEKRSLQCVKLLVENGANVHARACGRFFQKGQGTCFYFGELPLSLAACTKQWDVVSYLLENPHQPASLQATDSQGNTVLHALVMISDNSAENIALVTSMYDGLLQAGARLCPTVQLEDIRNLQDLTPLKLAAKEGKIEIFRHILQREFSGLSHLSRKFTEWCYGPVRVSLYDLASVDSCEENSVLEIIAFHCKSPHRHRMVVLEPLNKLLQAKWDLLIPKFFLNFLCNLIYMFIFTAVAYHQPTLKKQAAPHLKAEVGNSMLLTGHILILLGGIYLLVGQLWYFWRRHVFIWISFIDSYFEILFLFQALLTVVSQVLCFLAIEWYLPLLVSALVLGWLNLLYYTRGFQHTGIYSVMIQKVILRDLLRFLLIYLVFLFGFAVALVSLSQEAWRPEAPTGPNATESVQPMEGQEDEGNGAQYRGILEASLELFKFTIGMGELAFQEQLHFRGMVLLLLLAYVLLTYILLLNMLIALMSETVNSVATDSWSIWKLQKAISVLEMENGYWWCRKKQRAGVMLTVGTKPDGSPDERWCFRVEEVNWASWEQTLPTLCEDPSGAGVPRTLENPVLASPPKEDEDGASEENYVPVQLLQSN

[7] = system: isolated WT cardiomyocytes; settings: putatively through TRPV2 stimulation; cited from earlier work
[8] = endothelium-denuded (−E), pre-contracted with 3 mM phenylephrine

Compound: CNC[C@H](O)c1cccc(O)c1 [phenylephrine]
- maximal developed tension in response to phenylephrine ([1]; endothelium-denuded (−E), n=8): 5.99±0.74 mN
- maximal developed tension in response to phenylephrine ([1]; intact endothelium (+E)): 1.45±0.12 mN
- maximal developed tension in response to phenylephrine ([2]; endothelium-denuded (−E), n=8): 6.07±0.55 mN
- maximal developed tension in response to phenylephrine ([2]; intact endothelium (+E)): 1.75±0.25 mN

- EC50 ([1]; intact endothelium (+E)): 670 ± 210 µM
- EC50 ([1]; without endothelium (−E)): 4560 ± 340 µM
- EC50 ([2]; intact endothelium (+E)): 520 ± 110 µM
- EC50 ([2]; without endothelium (−E)): 4590 ± 520 µM
Compound: CCCN(CCC)S(=O)(=O)c1ccc(C(=O)O)cc1 [probenecid]
- lusitropy ([3]; WT mice, low (30 mg/kg) and high (100 mg/kg) doses): increased lusitropy
- contractile function (LV dP/dtmax, dP/dt40) ([3]; WT mice, probenecid 30 and 100 μg/g i.v. bolus): robust stimulation of contractile function
- time to maximal effect on LV dP/dt ([3]; after i.v. bolus administration): maximal within one minute
- duration of stable effect on LV dP/dt ([3]; after i.v. bolus administration, at the time of reported measurement): at least 5 minutes
- cardiac relaxation and diastolic function ([3]; rodents, summary statement): improved cardiac relaxation and improved diastolic function
- contractile function (LV dP/dtmax, dP/dt40), effect relative to WT [4]: markedly attenuated
- dilatory response, concentration threshold [1, 8]: no significant dilatory response until a concentration of 1 mM
- developed tension at 10 mM probenecid ([1]; endothelium-denuded (−E), pre-contracted with phenylephrine, 10 mM): about 25 % of maximum
- dilatory response, concentration threshold [2, 8]: no significant dilatory response until a concentration of 1 mM
- developed tension ([2]; endothelium-denuded (−E), pre-contracted with phenylephrine): about 25 % of maximum
- vasoactive effect ([5]; low and high doses, even in deendothelialized vessels (discussion)): no significant vasoactive effect
- vasoconstrictor effect (force production) ([5]; with or without intact endothelium, concentrations as high as 10 mM): no evidence was found of increased force production
- TRPV2 agonist activity [6]: selective agonist of TRPV2
- cytosolic Ca2+ concentrations and Ca2+ sparks [7]: increases cytosolic Ca^2+ concentrations and increased Ca^2+ sparks
